Data on two compounds can be found in ChEMBL document CHEMBL3046538, “Synthesis of simplified herboxidiene aromatic hybrids” (2000).

What all share (type): functional
One experiment deals with Amaranthus spinosus. The experiment is described as follows: Herbicidal activity against Amaranthus spinosus assessed as control at 1 kg/hacter post-emergently.
A further experiment has as its system Solanum. The experiment is described as follows: Herbicidal activity against Solanum assessed as control at 1 kg/hacter post-emergently.
Experiment [1] can be described thus: Herbicidal activity against biennial weeds assessed as control at 1 kg/hacter post-emergently.
The next experiment deals with Abutilon. Nature of the experiment: Herbicidal activity against Abutilon assessed as control at 1 kg/hacter post-emergently.

Molecules are shown by their SMILES.

As for `CCCC[C@H]1O[C@H]1CCOc1cccc([C@@H]2CCC[C@H](CC(=O)OC)O2)c1`, the Efficacy in the experiment with Amaranthus spinosus was determined as 30%; with Solanum it was 90%; in experiment [1], 10%; with Abutilon it was 10%.

In the case of `COC(=O)C[C@H]1CC[C@H](C)[C@@H](/C(C)=C/C=C/[C@@H](C)C[C@@]2(C)O[C@@H]2[C@H](C)[C@@H](OC)[C@@H](C)O)O1` [HERBOXIDIENE METHYL ESTER], the Efficacy (in the experiment on Amaranthus spinosus; with Solanum; in experiment [1]; with Abutilon) was 100% each time.
